Assay results published in patent US20230340020A1, “PEPTIDE LIGANDS FOR BINDING TO MT1-MMP” (priority 2016, published 2023).
Starred links: 1 amine or outer side, 2 acyl side, 3 side chain; linkers in the order of their positions; H or OH if unused. Positions of bridges follow the written chain, without caps; N, C: chain ends. Non-standard residues stand in square brackets, D forms with d. Residues, ends and D or L forms follow the SMILES beside them. 1Nal = N[C@@H](Cc1cccc2ccccc12)C(=O)O; TBMB = c1c(C[*:1])cc(C[*:3])cc1C[*:2]; Tle = CC(C)(C)[C@H](N)C(=O)O; βAla = NCCC(=O)O; Sar = CNCC(=O)O

How the values were obtained:
MT1-MMP hemopexin domain = target: T1, MT1-MMP hemopexin domain (Homo sapiens, UniProt P50281); test: Fluorescence polarisation competition binding to MT1-MMP hemopexin domain; settings: read-out: Binding Affinity Ki(h)
T1 construct: residues Cys319-Gly511 from the human gene; His6 (N); made in house; host or cells: HEK293 (transient, pEXPR-IBA42 vector)
From the text: The MT1-MMP hemopexin-like repeats (also known as the MT1-MMP hemopexin domain), residues Cys319-Gly511 from the human gene, were transiently expressed in HEK293 cells as secreted N-terminally His6-tagged soluble protein, using the pEXPR-IBA42 (IBA) expression vector. Following expression, the protein was purified by Nickel-NTA affinity chromatography followed by gel filtration, and purity was checked by SDS-PAGE. Batch to batch variability was also monitored by fluorescence thermal shift experiments in the presence/absence of a hemopexin domain binding bicycle.
Binding affinity was measured using competition assays using Fluorescence Polarisation (anisotropy). […]
Here, a pre-formed complex of PEX with the fluorescent PEX-binding tracer is titrated with free, non-fluoresceinated bicyclic peptide. […] Dissociation of the complex can be measured quantitatively, and the Kd of the competitor (titrant) to the target protein determined. The advantage of the competition method is that the affinities of non-fluoresceinated bicyclic peptides can be determined accurately and rapidly.
Subsequently, the non-fluorescent competitor bicyclic peptide (usually just the bicycle core sequence) is titrated, such that it displaces the fluorescent tracer from the target protein. The displacement of the tracer is measured and associated with a drop in fluorescence polarisation. […]

MT1-MMP = test: Species cross-reactivity with MT1-MMP; assay type: binding; settings: murine, dog, cynomolgus and human MT1-MMP
[1] = Plasma stability in mouse serum; assay type: in vitro ADME; settings: 4 μM concentration
From the text: (§1) The stability appears to be slightly greater than that of the corresponding conjugates in which the peptide is linked to the scaffold by three thioether linkages.

[2] = Plasma stability in human serum; assay type: in vitro ADME; settings: 4 μm concentration
From the text: as §1

[3] = Tolerability in HT1080 tumor-bearing mice; settings: mouse, in vivo; biw dosing, up to 14 days, BALB/c nude mice; read-out: tolerated dose
Description: BALB/c nude mice were inoculated subcutaneously at the right flank with HT1080 tumor cells […] in 0.2 ml of PBS for tumor development. 39 animals were randomized when the average tumor volume reached […].
The BDC compounds were formulated at 0.03 mg/ml in a vehicle buffer containing 25 mM histidine and 10% Sucrose. The formulations were administered twice weekly (biw) at 0.3, 1, 3 and 10 mg/kg. Tumor volume and body weight were measured up to 14 days from the first dosing.

CC(=O)N[C@@H](C)C(=O)N[C@H]1CN(C)Cc2cc3cc(c2)CN(C)C[C@@H](C(N)=O)NC(=O)[C@H](C(C)(C)C)NC(=O)[C@H](CC(=O)O)NC(=O)[C@H](Cc2ccc(O)cc2)NC(=O)[C@H](Cc2ccccc2)NC(=O)[C@H](CC(=O)O)NC(=O)[C@H](CCC(=O)O)NC(=O)[C@H](CSC3)NC(=O)[C@@H](C)NC(=O)[C@H](Cc2cccc3ccccc23)NC(=O)[C@H](CCC(=O)O)NC(=O)[C@H](CC(N)=O)NC(=O)[C@@H](C)NC1=O [17-69-07-N479, Ac-A(Dap(Me))(D-Ala)NE(1Nal)(D-Ala)CEDFYD(tBuGly)(Dap(Me))]
Ki (MT1-MMP hemopexin domain): 15.6 nM

17-69-07-N268: stabilised derivative of 17-69-07; Dap homologues have SEQ ID 17 (ACANEAACEDFYDGC; non-natural residues D-Ala, 1Nal, tBuGly, Dap; bicycle; VARIANT 2 /replace="Dap" or "N-AlkDap" or "N-HAlkDap"; MOD_RES 3 D-amino acid; MOD_RES 6 Fmoc-L-1-Naphthylalanine; MOD_RES 7 D-amino acid; VARIANT 8 /replace="Dap" or "N-AlkDap" or "N-HAlkDap"; MOD_RES 14 Fmoc-alpha-tert-butylglycine; VARIANT 15 /replace="Dap" or "N-AlkDap" or "N-HAlkDap"; MISC_FEATURE - /note="Variant residues given in the sequence have nopreference with respect to those in the a)
cross-reactivity with MT1-MMP of other species (MT1-MMP): fully cross reactive

C[C@H](NC(=O)CN(C)C(=O)CN(C)C(=O)CN(C)C(=O)CN(C)C(=O)CN(C)C(=O)CN(C)C(=O)CN(C)C(=O)CN(C)C(=O)CN(C)C(=O)CN(C)C(=O)CCN)C(=O)N[C@H]1CSCc2cc3cc(c2)CSC[C@H](NC(=O)[C@@H](C)NC(=O)[C@H](Cc2cccc4ccccc24)NC(=O)[C@H](CCC(=O)O)NC(=O)[C@H](CC(N)=O)NC(=O)[C@@H](C)NC1=O)C(=O)N[C@@H](CCC(=O)O)C(=O)N[C@@H](CC(=O)O)C(=O)N[C@@H](Cc1ccccc1)C(=O)N[C@@H](Cc1ccc(O)cc1)C(=O)N[C@@H](CC(=O)O)C(=O)N[C@@H](C(C)(C)C)C(=O)N[C@H](C(N)=O)CSC3 [17-69-07-N241, H-(β-Ala)-Sar10-Ala-Cys-(D-Ala)-Asn-Glu-(1Nal)-(D-Ala)-Cys-Glu-Asp-Phe-Tyr-Asp-(tBuGly)-Cys-NH2] (H-[βAla][Sar][Sar][Sar][Sar][Sar][Sar][Sar][Sar][Sar][Sar]AC[dA]NE[1Nal][dA]CEDFYD[Tle]C-NH2; linker 13-19-26 via TBMB)
cross-reactivity with MT1-MMP of other species (MT1-MMP): fully cross reactive

CC[C@H](C)[C@@H]([C@@H](CC(=O)N1CCC[C@H]1[C@H](OC)[C@@H](C)C(=O)N[C@H](C)[C@@H](O)c1ccccc1)OC)N(C)C(=O)[C@@H](NC(=O)[C@H](C(C)C)N(C)C(=O)OCc1ccc(NC(=O)[C@H](CCCNC(N)=O)NC(=O)[C@@H](NC(=O)Cn2cc(CCC(=O)NCCC(=O)N(C)CC(=O)N(C)CC(=O)N(C)CC(=O)N(C)CC(=O)N(C)CC(=O)N(C)CC(=O)N(C)CC(=O)N(C)CC(=O)N(C)CC(=O)N(C)CC(=O)N[C@@H](C)C(=O)N[C@H]3CNCc4cc5cc(c4)CSC[C@H](NC(=O)[C@@H](C)NC(=O)[C@H](Cc4cccc6ccccc46)NC(=O)[C@H](CCC(=O)O)NC(=O)[C@H](CC(N)=O)NC(=O)[C@@H](C)NC3=O)C(=O)N[C@@H](CCC(=O)O)C(=O)N[C@@H](CC(=O)O)C(=O)N[C@@H](Cc3ccccc3)C(=O)N[C@@H](Cc3ccc(O)cc3)C(=O)N[C@@H](CC(=O)O)C(=O)N[C@@H](C(C)(C)C)C(=O)N[C@H](C(N)=O)CNC5)nn2)C(C)C)cc1)C(C)C [BT17BDC-53]
T1/2 in mouse serum [1]: greater than 50 hours
T1/2 in human serum [2]: greater than 50 hours

CC[C@H](C)[C@@H]([C@@H](CC(=O)N1CCC[C@H]1[C@H](OC)[C@@H](C)C(=O)N[C@H](C)[C@@H](O)c1ccccc1)OC)N(C)C(=O)[C@@H](NC(=O)[C@H](C(C)C)N(C)C(=O)OCc1ccc(NC(=O)[C@H](CCCNC(N)=O)NC(=O)[C@@H](NC(=O)Cn2cc(CCC(=O)N[C@@H](C)C(=O)N[C@H]3CN(C)Cc4cc5cc(c4)CN(C)C[C@@H](C(N)=O)NC(=O)[C@H](C(C)(C)C)NC(=O)[C@H](CC(=O)O)NC(=O)[C@H](Cc4ccc(O)cc4)NC(=O)[C@H](Cc4ccccc4)NC(=O)[C@H](CC(=O)O)NC(=O)[C@H](CCC(=O)O)NC(=O)[C@H](CSC5)NC(=O)[C@@H](C)NC(=O)[C@H](Cc4cccc5ccccc45)NC(=O)[C@H](CCC(=O)O)NC(=O)[C@H](CC(N)=O)NC(=O)[C@@H](C)NC3=O)nn2)C(C)C)cc1)C(C)C [BT17BDC-62]
MTD [3]: ~5 mg/kg
